Results published in patent US8450441B2, “Synthetic N-linked sialo-glycan-containing polymer and method for producing the same” (priority 2007, dated 2013).

What was measured:
[1] = tested on: A/Duck/HK/313/4/78 (H5N3); assay type: cell-based, Influenza A virus (Avian strain); details: read-out: HI activity IC50
[2] = tested on: A/Aichi/2/68 (H3N2); assay type: cell-based, Influenza A virus (Human strain); details: for IC50: read-out: HI activity IC50

Substance	IC50 [1]	inhibition activity of human influenza virus infection compared with conventional O-linked sialo-glycan-containing polymer [2]	IC50 [2]	inhibition activity of human influenza virus infection compared with Poly[Neu5Ac α2-6-LacNAc β-N-(ε-aminocaproyl/γ-PGA] [2]
Poly[Neu5Ac α2-6-N-acetyllactosaminylamine β-N-(ε-aminocaproyl)/γ-PGA]	> 200 nM	many times greater	1.2 nM	
Poly[Neu5Ac α2-6-lacto-N-neotetraosylamine β-N-(ε-aminocaproyl)/γ-PGA]	> 200 nM		0.29 nM	many more times greater
Poly[N-(ε-aminocaproyl)-β-N-acetyllactosaminylamine/-γ-PGA]]	> 200 nM		> 200 nM	
Poly[Neu5Ac α2-3lactosylamine β-N-(ε-aminocaproyl)/γ-PGA]	37.5 nM		37.5 nM	
Poly[Neu5Ac α2-3-N-acetyllactosaminylamine β-N-(ε-aminocaproyl)/γ-PGA]	37.5 nM		37.5 nM	
Poly[Neu5Ac α2-3lacto-N-neotetraosylamine β-N-(ε-aminocaproyl)/γ-PGA]	37.5 nM		18.8 nM	
Poly[Neu5Ac α2-6lactosylamine β-N-(ε-aminocaproyl)/γ-PGA]	> 200 nM		4.7 nM	
Poly[N-(ε-aminocaproyl)-β-lactosylamine/-γ-PGA]]	> 200 nM		> 200 nM	
Poly[N-(ε-aminocaproyl)-β-lacto-N-neotetraosylamine/-γ-PGA]]	> 200 nM		> 200 nM	
